This note sets out measurements from US9073835B2, “N-acylthiourea and N-acylurea inhibitors of the Hedgehog protein signalling pathway” (Centre National De La Recherche Scientifique, priority 2008, dated 2015).

A value given as a limit tells only on which side of the number the result lay.

The subject of the experiment is Hedgehog protein signaling pathway. As to the kind of experiment: Inhibition of SAG-induced alkaline phosphatase activity (differentiation) in C3H10T1/2 cells. The class given is cell-based. The following applies: Mus musculus; for inhibition at 10 µM: C3H 10T1/2, 10 μM test compound, percentage of alkaline phosphatase activity induced by SAG; for IC50: C3H 10T1/2, after induction by 0.1 μM SAG. Here is the method:
The effect of compounds with formula (I) as claimed in the invention on inhibition of the Hedgehog protein signaling pathway was determined by analysis of differentiation in the pluripotent fibroblast cell line C3H10T1/2 after activation of this pathway in these cells using a synthetic activator: SAG.
The compounds with formula (I) to be tested were dissolved in dimethylsulfoxide to a concentration of 10 mM, then stored at a temperature of −20° C. until use.
The pluripotent fibroblast cell line C3H10T1/2 (ATCC) was cultivated under the conditions recommended by the ATCC. These cells were activated using 0.1 μM of SAG, employing the methods described by Chen et al., Proc. Natl. Acad. Sci. USA, 2002, 99, 14071 and Frank-Kamenetsky et al., J. Biol., 2002, 1, 10.
Activation with SAG provokes differentiation of the cell line and allows them to express alkaline phosphatase. It is then possible to measure the activity of the Hedgehog protein signaling pathway by measuring the alkaline phosphatase activity.
The C3H10T1/2 cells were plated onto 96-well plates at a density of […], 24 hours before addition of the test compounds in a concentration of 1 nM to 30 μM and in the presence of 0.1 μM of SAG using DMEM supplemented with 10% fetal calf serum as the culture medium. The tests were carried out in quadruplicate. The plates were then incubated for 5-6 days at a temperature of 37° C. in an atmosphere of 5% CO2. The cells were washed in a cold phosphate buffer (“Phosphate Buffer Serum”: PBS) then lysed by sonication at 4° C. in 50 μl of a solution containing 0.9% of NaCl and 0.2% of Triton X-100.
By way of comparison, the activity of a known inhibitor of the Hedgehog protein signaling pathway, CURIS 61 414, as described, for example, by Frank-Kamenetsky M. et al. (J. Biol., 2002, 1, 10), was tested under the same conditions as those used to test the various compounds with formula (I) as claimed in the invention.
The alkaline phosphatase activity measurement in the lysates obtained was then carried out using the method described by Pepinsky et al. (J. Biol. Chem., 1998, 273, 14037). After adding 100 μl of reaction buffer (200 mM Tris-HCl; pH 10.5; 0.4 M of 2-amino-2-methylpropanol and 8 mM of MgCl2) and 50 μl of substrate (4 mM of disodium p-nitrophenyl phosphate), the lysates were incubated at 37° C. for 30-60 min, then the optical density was read at a wavelength of 415 nm.

`COc1cc(C(=O)NC(=S)Nc2cccc(NC(=O)Nc3ccc(-c4ccccc4)cc3)c2)cc(OC)c1OC` [Compound 52, N-(3-(3-biphenyl-4-ylureido)phenylcarbamothioyl)-3,4,5-trimethoxybenzamide] returned an inhibition at 10 µM of more than 80% and an IC50 of 0.01 to 1 µM.

As for `CCOc1cc(C(=O)NC(=S)Nc2cccc(NC(=O)c3ccccc3)c2)cc(OC)c1OCC` [Compound 20, N-[[[3-(benzoylamino)phenyl]amino]thioxomethyl]-3,4-ethoxy-5-methoxy-benzamide], the inhibition at 10 µM is more than 80% and the IC50 lay in the range of 0.01 to 1 µM.

Consider `COc1ccccc1C(=O)Nc1cccc(NC(=S)NC(=O)c2cc(OC)c(OC)c(OC)c2)c1` [Compound 4, N-[[[3-(2-methoxy-benzoylamino)phenyl]amino]thioxomethyl]-3,4,5-methoxy-benzamide], for which the inhibition at 10 µM was more than 80% and the IC50 was 1 to 3 µM.

`COc1cc(C(=O)NC(=O)Nc2ccc(Cl)c(NC(=O)c3ccc(-c4ccccc4)cc3)c2)cc(OC)c1OC` [Compound 37, N-[[[4-Chloro-3-(4-phenyl-benzoylamino)phenyl]amino]oxomethyl]-3,4,5-methoxy-benzamide] registered an inhibition at 10 µM of 20 to 80%.

For `COc1cc(C(=O)NC(=S)Nc2cccc(NC(=O)c3cccs3)c2)cc(OC)c1OC` [Compound 15, N-[[[3-(2-thiophenoylamino)phenyl]amino]thioxomethyl]-3,4,5-methoxy-benzamide], the inhibition at 10 µM fell in the range of 20 to 80%.

For the compound `COc1cc(C(=O)NC(=S)Nc2ccc(Cl)c(C(=O)Nc3ccc(Cl)cc3)c2)cc(OC)c1OC` [Compound 43], the inhibition at 10 µM was more than 80%.

The compound `COc1cc(C(=O)NC(=S)Nc2cccc(NC(=O)c3cccc4ccccc34)c2)cc(OC)c1OC` [Compound 12, N-[[[3-(1-naphthoylamino)phenyl]amino]thioxomethyl]-3,4,5-methoxy-benzamide] returned an inhibition at 10 µM of 20 to 80%.

In turn, `COc1cc(C(=O)NC(=S)Nc2cccc(-c3cn4ccsc4n3)c2)cc(OC)c1OC` [Compound 58, N-(3-(imidazo[2,1-b]thiazol-6-yl)phenylcarbamothioyl)-3,4,5-trimethoxybenzamide] came in with an inhibition at 10 µM of more than 80% and an IC50 of 1 to 3 µM.

`COc1cccc(C(=O)Nc2cccc(NC(=S)NC(=O)c3cc(OC)c(OC)c(OC)c3)c2)c1` [Compound 3, N-[[[3-(3-methoxy-benzoylamino)phenyl]amino]thioxomethyl]-3,4,5-methoxy-benzamide] yielded an inhibition at 10 µM of more than 80% and an IC50 of 1 to 3 µM.

Regarding `CCOc1c(OC)cc(C(=O)NC(=S)Nc2cccc(NC(=O)c3ccccc3)c2)cc1OC` [Compound 19, N-[[[3-(benzoylamino)phenyl]amino]thioxomethyl]-3,5-methoxy-4-ethoxy-benzamide], the inhibition at 10 µM was more than 80% and the IC50 lay in the range of 0.01 to 1 µM.

Regarding `COc1cc(C(=O)NC(=O)Nc2cccc(NC(=O)c3ccc(-c4ccccc4)cc3)c2C)cc(OC)c1OC` [Compound 45], the inhibition at 10 µM is more than 80% and the IC50 fell in the range of 0.01 to 1 µM.

With `COc1cc(C(=O)NC(=O)Nc2cccc(NC(=O)c3ccc(-c4ccccc4)cc3)c2)cc(OC)c1OC` [Compound 7, N-[[[3-(4-phenyl-benzoylamino)phenyl]amino]oxomethyl]-3,4,5-methoxy-benzamide], the inhibition at 10 µM lay within 20 to 80%.

With `COc1cc(OC)cc(C(=O)NC(=S)Nc2cccc(NC(=O)c3ccccc3)c2)c1` [Compound 18, N-[[[3-(benzoylamino)phenyl]amino]thioxomethyl]-3,5-methoxy-benzamide], the inhibition at 10 µM was more than 80% and the IC50 was in the range of 1 to 3 µM.

Compound `COc1cc(C(=O)NC(=S)Nc2cccc(-n3ccc4ccccc43)c2)cc(OC)c1OC` [Compound 57, N-(3-(1H-indol-1-yl)phenylcarbamothioyl)-3,4,5-trimethoxybenzamide] gave an inhibition at 10 µM of more than 80% and an IC50 of 1 to 3 µM.

As usually defined, the inhibition is the share of the control response that was lost under treatment. Low values mean a response near the control, high ones a response far below the control. As usually defined, the IC50 is the concentration that gives 50% inhibition. Read a low IC50 as greater potency in that assay.
